Data published in paper PMC11997985, “Synthesis and In Vitro Profiling of Psilocin Derivatives: Improved Stability and Synthetic Properties” (Journal of Medicinal Chemistry, 2025).

Columns and labels:
[1] = Compounds in pre-precipitated (inactivated) plasma; format: in vitro ADME, human; conditions: for % found in incubation plasma at time 0.2 min: peak area in incubation plasma versus pre-precipitated plasma; for degradation in inactivated plasma: plasma pretreated with acetonitrile
Description: Materials for experiments described in the supporting information (solubility) […]
Dimethylsulfoxide (DMSO) CHROMASOLV™ Plus, >99.7%
Acetonitrile (MeCN) LiChrosolv, hypergrade for LC-MS, Merck Chemicals
Formic acid (HCOOH) For LC-MS, Carlo-Erba
Water > 18MΩcm quality (Milli-Q, Millipore
Di-sodium-hydrogenphoshate dihydrate Merck
Sodium-dihydrogenphosphate monohydrate Merck
Autosampler Agilent 1260 Multisampler, G7167A
Gradient LC-pump Agilent 1260 Flexible Pump, G7104C
Analytical Flow 0.5 mL/min
Analytical column Luna® Omega 1.6 µm Polar C18 100Å, 50 x 2.1 mm
Injection volume 3.0 µL (15 µL for “high” injection of buffer sample) […]
Mobile phase A H2O/MeCN/Formic acid 95/5/0.1
Mobile phase B H2O/MeCN/Formic acid 5/95/0.1
Materials and analytical parameters for FT-ICR-MALDI-HRMS
The high-resolution mass spectrometry (HR-MS) experiments were performed using a MALDI-Fourier-transform ion cyclotron resonance (FTICR) (7T solariX XR-2ω, Bruker Daltonics) mass spectrometer equipped with a Smartbeam II 2 kHz laser. Briefly, a stock solution (1mg/ml) of the compound 5 was prepared and mixed 1:1 with a matrix solution containing DHB (40 mg/ml) in 50% ACN (0.02% TFA). 1 µl of the mixed solution was spotted onto MPTP MALDI target plate (Bruker Daltonics) and dried at room temperature. The instrument was tuned for optimal detection of small molecules (m/z 86–500) in positive polarity using the quadrature phase detection (QPD) (2ω) mode. The method was calibrated with red phosphorus over the mass range and DHB matrix ion [2M–2H2O+H]+ m/z 273.039364 was used as lock mass. The compound was identified with sub ppm mass accuracy and specific isotopic pattern of boron in its molecular structure.
Incubation samples. 10 mM stock solutions of test compounds in DMSO were used to prepare 100 μM solutions by dilution in EtOH/water 25/75 (v/v). 6 μL of the 100 μM solution was spiked into 594 μL pre-warmed plasma at 37 °C giving a final concentration of 1 μM. The incubation tube was then mixed on a vortex. A sample (60 μL) was taken and added to an Eppendorf tube containing 180 μL acetonitrile. The tube was thoroughly mixed with a vortex. The precipitated sample was then treated with centrifugation (10.000 g, 10 minutes, 18 °C), 150 μL of the supernatant was mixed with 450 μL water directly into a LC-vial (glass). This step was repeated for every time point. The first time point was approximately taken 15-20 seconds after spiking.
Other timepoints were 5,10, 30, 60, 120, 240 minutes. Pre-precipitated samples. 594 μL of pre-warmed plasma was precipitated with 1800 μL ACN. 6 μL of the 100 μM solution was spiked into the precipitated plasma. 1 mL was removed and added to an Eppendorf tube. After a centrifugation step (10.000 g, 10 minutes, 18 °C), 150 μL of the supernatant was mixed with 450 μL water directly into a LC-vial (glass).
Metabolic stability in human microsomes
The assay was run at 37°C with a microsomal protein concentration of 0.5 mg/mL and a compound concentration of 1 μM in a 0.1 M potassium phosphate buffer at pH 7.4. The compounds were added to the microsome suspension whereafter the enzymatic reaction was initiated by the addition of the co-factor NADPH, giving a final NADPH concentration of 1 mM (Table 9). Samples […]
Table S6 Time-dependent decline in concentration of five compounds for in vitro plasma stability in human plasma and […]
Plasma stability. The compounds were incubated separately at a concentration of 1 μM in +37°C pre-warmed pooled human plasma from commercial resources. The incubations were performed over a four-hour period with the first sample taken after addition of the compounds to plasma followed by a thorough mixing, with further sampling at 5, 10, and 30 minutes as well as 1, 2, and 4 hours. The samples were analyzed by LC-MS/MS using relative peak areas for the calculations of the time-dependent […]
Table S7 Comparison of peak area in incubation plasma after addition and mixing with pre-precipitated plasma. […]

[2] = mice dosed with psilocybin or 4-AcO–DMT; cited from earlier work
[3] = Solid solubility assay, phosphate buffer pH 7.4; format: physicochemical; conditions: phosphate buffer pH 7.4, dry substance

| SMILES | % found in incubation plasma at time 0.2 min [1] | degradation in inactivated plasma [1] | psilocin exposure compared with psilocybin [2] | solubility at 24 h [3] |
| --- | --- | --- | --- | --- |
| CN(C)CCc1c[nH]c2cccc(OCc3ccccc3)c12 [Compound 3, 4-Benzyloxy-N,N-dimethyltryptamine] | 115% | fairly stable |  |  |
| CC(=O)Oc1cccc2[nH]cc(CCN(C)C)c12.O=C(O)/C=C/C(=O)O [Compound 4a, 4-acetoxy-N,N-dimethyltryptamine] | 9.8% | heavily degraded | nonsignificant difference in psilocin exposure |  |
| CN(C)CCc1c[nH]c2cccc(OC(=O)C3CC3)c12.O=C(O)/C=C/C(=O)O [Compound 4g] | 90% | fairly stable |  |  |
| CCOC(=O)Oc1cccc2[nH]cc(CCN(C)C)c12.O=C(O)/C=C/C(=O)O [Compound 4i] | 17% | heavily degraded |  |  |
| CN(C)CCc1c[nH]c2cccc(OP(=O)(O)O)c12 [Compound 8, 4-phosphoryloxy-N,N-dimethyltryptamine, reference compound] | 67% | fairly stable |  | > 1000 µM |
